Experiments:
rat D1 receptor = target: T1, rat D1 receptor (Rattus norvegicus, UniProt P18901); assay: Radioligand binding [3H]SCH23390, rat brain tissue; conditions: for Ki: native rat D1 receptor, read-out: rD1 [3H]SCH23390 Ki ± SEM; for inhibition at 1 µM: read-out: rD1 [3H]SCH23390 % inhibition ± SEM at 1 µM
T1 construct: source of native rat D1 receptor protein; from tissue; host or cells: rat striatum (methods) / rat brain cortical membranes
Protocol: (§1) Rat brain cortical membranes were used as source of native rat D1 receptor protein, and human D2 receptor was recombinantly expressed in HEK293 cells.
Rat striatum tissue was thawed in 50 volumes of ice-cold 50 mM potassium phosphate buffer, pH 7.4, homogenized and centrifuged at 20,000× g for 20 min. The resulting pellet was resuspended in the same quantity of the buffer and centrifuged again for 20 min. Binding experiments were conducted in 96-well microplates in a total volume of 250 μL of appropriate buffers. Reaction mix included 50 μL solution of test compound, 50 μL of radioligand, and 150 μL of tissue suspension (3 mg/mL). [^3H]SCH23390 (spec. act. 81.9 Ci/mmol, PerkinElmer, NET 930) was used for labeling the D1-receptor. For measuring unspecific binding, cis(Z)flupentixol—5 μM was applied. Samples were incubated at 30 °C for 60 min. The incubation was terminated by rapid filtration over glass fiber filters GF/B using a Harvester (PerkinElmer, USA). The radioactivity was measured in MicroBeta TriLux 1450—liquid scintillation counter (PerkinElmer). Each compound was tested in a screening assay in duplicate at final concentrations of 1 µM. Results were expressed as a percent of inhibition of specific binding.

human D2L receptor = human D2L receptor (Homo sapiens, UniProt P14416); assay: Radioligand binding [3H]-raclopride, HEK293 membranes; conditions: HEK293 cells, human D2; read-out: hD2 [3H]-Raclopride Ki ± SEM
Sequence of human D2L receptor (P14416 whole entry): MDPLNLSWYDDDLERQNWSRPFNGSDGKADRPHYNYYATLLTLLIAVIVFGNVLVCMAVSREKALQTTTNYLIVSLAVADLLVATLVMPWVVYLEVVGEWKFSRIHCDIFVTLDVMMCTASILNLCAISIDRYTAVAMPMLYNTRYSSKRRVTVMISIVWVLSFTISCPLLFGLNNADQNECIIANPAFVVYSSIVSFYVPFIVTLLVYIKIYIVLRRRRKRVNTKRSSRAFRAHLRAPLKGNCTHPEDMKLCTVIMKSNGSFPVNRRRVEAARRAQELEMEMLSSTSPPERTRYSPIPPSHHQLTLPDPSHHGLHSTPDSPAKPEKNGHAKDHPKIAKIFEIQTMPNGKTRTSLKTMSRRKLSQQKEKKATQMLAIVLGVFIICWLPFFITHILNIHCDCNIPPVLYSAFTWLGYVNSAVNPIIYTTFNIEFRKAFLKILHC
Protocol: as §1
HEK293 cells with stable expression of human D2L receptor were maintained at 37 °C in a humidified atmosphere with 5% CO2 and grown in Dulbecco’s Modifier Eagle Medium containing 10% dialyzed fetal bovine serum and 500 µg/mL G418 sulfate. For membrane preparation, cells were subcultured in 150 cm^2 flasks, grown to 90% confluence, washed twice with prewarmed to 37 °C phosphate buffered saline (PBS), and pelleted by centrifugation (200× g) in PBS containing 0.1 mM EDTA and 1 mM dithiothreitol. Prior to membrane preparation, pellets were stored at −80 °C.
Cell pellets were thawed and homogenized in 10 volumes of assay buffer using an Ultra Turrax tissue homogenizer and centrifuged twice at 35,000× g for 15 min at 4 °C. The incubation buffer consisted of 50 mM Tris-HCl, 1 mM EDTA, 4 mM MgCl2, 120 mM NaCl, 5 mM KCl, 1.5 mM CaCl2, and 0.1% ascorbate. Assay was incubated in a total volume of 200 µL in 96-well microtiter plate for 1 h at 37 °C. The process of equilibration was terminated by rapid filtration through Unifilter plate with a 96-well cell harvester and radioactivity retained on the filter was quantified on a Microbeta plate reader (PerkinElmer). For competition studies, the assay samples contained radioligand 2.5 nM [^3H]-raclopride (PerkinElmer). Non-specific binding was defined with 10 µM of haloperidol. Each compound was tested in triplicate at 7 concentrations (10^−10–10^−4 M). The inhibition constants (Ki) were calculated from the Cheng–Prusoff equation [66]. Results were expressed as means of at least two separate experiments.

human PDE10A1 = target: T2, human PDE10A1 (Homo sapiens, UniProt Q9Y233); assay: PDElight HTS cAMP phosphodiesterase assay, PDE10A1; format: biochemical; conditions: for inhibition at 10 µM: read-out: PDE 10A1 % Inhibition ± SEM at 10 µM; for IC50: read-out: PDE 10A1 IC50 ± SEM
T2 construct: purchased BPS Biosciences
T2 sequence (Q9Y233 1-779 isoform Q9Y233-1): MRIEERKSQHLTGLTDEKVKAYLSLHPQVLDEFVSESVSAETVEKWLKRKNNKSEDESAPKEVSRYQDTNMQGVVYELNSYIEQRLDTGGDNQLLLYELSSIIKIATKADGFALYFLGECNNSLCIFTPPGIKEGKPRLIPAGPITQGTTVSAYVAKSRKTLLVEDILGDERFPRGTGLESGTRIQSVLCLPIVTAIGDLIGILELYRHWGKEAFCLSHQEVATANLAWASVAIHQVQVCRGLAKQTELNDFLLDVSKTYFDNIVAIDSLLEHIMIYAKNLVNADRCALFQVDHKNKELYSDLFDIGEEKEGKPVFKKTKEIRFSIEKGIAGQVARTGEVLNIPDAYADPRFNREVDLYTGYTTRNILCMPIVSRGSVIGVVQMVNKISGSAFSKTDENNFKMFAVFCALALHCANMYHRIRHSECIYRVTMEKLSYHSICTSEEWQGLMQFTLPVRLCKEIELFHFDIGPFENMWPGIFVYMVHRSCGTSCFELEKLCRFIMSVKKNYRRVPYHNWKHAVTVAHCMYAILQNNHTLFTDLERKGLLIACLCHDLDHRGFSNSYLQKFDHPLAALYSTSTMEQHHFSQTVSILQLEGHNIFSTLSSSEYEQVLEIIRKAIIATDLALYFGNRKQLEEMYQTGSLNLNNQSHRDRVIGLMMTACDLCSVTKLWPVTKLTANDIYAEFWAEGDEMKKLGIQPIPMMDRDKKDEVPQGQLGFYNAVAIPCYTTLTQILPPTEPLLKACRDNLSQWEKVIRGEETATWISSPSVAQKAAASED
Protocol: Further biological evaluation of the presented compound library was performed determining inhibitory potencies against selected human PDE isoforms, namely, PDE4 and PDE10 (for results see Table 3).
Tested and reference compounds were dissolved in dimethyl sulfoxide (DMSO) at a concentration of 10 mM and further diluted in assay buffer (10 mM Tris-HCl, 10 mM magnesium chloride and 0.05% Tween-20; pH 7.4). Inhibition of human PDE10A and 4B1 was measured using PDElight HTS cAMP phosphodiesterase assay kit (Lonza, Basel, Switzerland) according to manufacturer’s recommendations. Then, 10 ng of PDE10A and 5 ng of PDE4B1 (BPS Biosciences, San Diego, CA, USA) in appropriate buffer was incubated with reference and tested compound for 20 min. […] Then PDELight AMP Detection Reagent was added and incubated 10 min. All reactions were carried out at 37 °C in 96 white-walled, half-area-well plates (PerkinElmer). Luminescence was measured in a multifunction plate reader (POLARstar Omega, BMG Labtech, Ortenberg, Germany). The percentage of inhibition and IC50s were computed using GraphPad Prism Version 6.0 software.

DPPH antioxidant assay = format: physicochemical; conditions: compound at 50 µM
Excerpt: The 2,2-diphenyl-1-picrylhydrazyl (DPPH) assay was used to determine the antioxidant properties of selected compounds using ascorbic acid, trolox, and quercetin as references. […] From a structural point of view, 21 and 22 share a common pyrimido[2,1-f]purinedione core with propyl or butyl substituents at the N1- and N3-position. Compounds 11i and 11l, containing hexyl or phenoxyethyl as N7-substituents, were the only structures in the groups of bicyclic xanthine derivatives that lacked antioxidant activity in the DPPH assay.
Antioxidant properties of considered structures were evaluated in DPPH test. The assay utilizes a stable free radical 2,2-diphenyl-1-picrylhydrazyl (DPPH). DPPH has a deep violet color in solution and strong absorption band at 520 nm. The antioxidant activity of the tested compounds was defined by their ability to induce the formation of the reduced form of DPPH. Upon reduction, DPPH color turned pale yellow, which manifested by decreased sample absorption at 520 nm and was measured in conducted experiments using EnSpire microplate reader (PerkinElmer). Antioxidant activity of xanthine derivatives and reference compounds was tested in triplicate at 50 µM concentration and normalized to the activity of reference radical scavenger—quercetin.
Figure 2 Antioxidant properties of xanthine derivatives evaluated in the DPPH test. All compounds were tested at 50 µM concentration. Results were normalized to the antioxidant activity measured for quercetin. ASC, ascorbic acid; TLX, trolox; QCT, quercetin.

T1 sequence (P18901 whole entry): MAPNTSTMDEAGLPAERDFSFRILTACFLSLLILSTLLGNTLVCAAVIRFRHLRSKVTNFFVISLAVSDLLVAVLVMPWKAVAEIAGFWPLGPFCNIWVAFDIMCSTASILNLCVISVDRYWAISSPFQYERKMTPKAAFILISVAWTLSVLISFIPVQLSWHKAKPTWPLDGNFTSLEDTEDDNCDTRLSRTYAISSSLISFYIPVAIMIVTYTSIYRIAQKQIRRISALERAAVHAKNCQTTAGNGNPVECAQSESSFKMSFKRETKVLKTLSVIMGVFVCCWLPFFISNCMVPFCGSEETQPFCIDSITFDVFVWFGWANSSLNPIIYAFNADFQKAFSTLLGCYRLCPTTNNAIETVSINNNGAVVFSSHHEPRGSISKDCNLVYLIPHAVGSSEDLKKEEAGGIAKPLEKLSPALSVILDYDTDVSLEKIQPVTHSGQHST

Row | Ki (rat D1 receptor) [µM] | inhibition at 1 µM (rat D1 receptor) [%] | Ki (human D2L receptor) [µM] | IC50 (human PDE10A1) [µM] | Structure (SMILES) | inhibition at 10 µM (human PDE10A1) [%] | Antioxidative Activity [% of Quercetin Response at 50 µM ± SD] (DPPH antioxidant assay)
1 | > 1 | 15 | 27.6 ± 4 | – | CC(C)Cn1c(NCCc2ccc(O)c(O)c2)nc2c1c(=O)n(C)c(=O)n2C [Compound 11f, 8-((3,4-Dihydroxyphenethyl)amino)-7-isobutyl-1,3-dimethyl-3,7-dihydro-1H-purine-2,6-dione] | 59 | 57 ± 1 % of Quercetin Response
2 | > 1 | 9 | 9.37 ± 1.15 | 3.45 ± 0.27 | CCCn1c(NCCc2ccc(O)c(O)c2)nc2c1c(=O)n(C)c(=O)n2C [Compound 11c, 8-((3,4-Dihydroxyphenethyl)amino)-1,3-dimethyl-7-propyl-3,7-dihydro-1H-purine-2,6-dione] | – | 69 ± 1 % of Quercetin Response
3 | > 1 | 12 | 12.7 ± 2.8 | 31 ± 0.1 | CCCn1c(=O)c2c(nc3n2CCCN3CCc2ccc(O)c(O)c2)n(CCC)c1=O [Compound 21, 9-(3,4-Dihydroxyphenethyl)-1,3-dipropyl-6,7,8,9-tetrahydropyrimido[2,1-f]purine-2,4(1H,3H)-dione] | – | 13 ± 1 % of Quercetin Response

Row | Structure (SMILES) | Ki (rat D1 receptor) [µM] | inhibition at 1 µM (rat D1 receptor) [%] | Ki (human D2L receptor) [µM] | IC50 (human PDE10A1) [µM] | inhibition at 10 µM (human PDE10A1) [%] | Antioxidative Activity [% of Quercetin Response at 50 µM ± SD] (DPPH antioxidant assay)
4 | CCCCn1c(=O)c2c(nc(NCCc3ccc(O)c(O)c3)n2CCC)n(CCCC)c1=O [Compound 13, 1,3-Dibutyl-8-((3,4-dihydroxyphenethyl)amino)-7-propyl-3,7-dihydro-1H-purine-2,6-dione] | > 1 | 2 | 4.39 ± 0.43 | > 10 | 26 | 61 ± 1 % of Quercetin Response

Source: paper PMC10377586 (Biomolecules, 2023)
